In brackets after ≈: the same amount, converted by molar mass. Where a SMILES comes first, the peptide text is derived from it. [ ]: non-standard residue; d: D form. The star is where a group is joined. d(aIle) = CC[C@H](C)[C@@H](N)C(=O)O; dDab = NCC[C@@H](N)C(=O)O; Octanoyl = CCCCCCCC(=O)*; Dab = NCC[C@H](N)C(=O)O
Experiments:
S. aureus 1126387 = type: cell-based, Staphylococcus aureus; settings: 1126387, 20 h
Description: (§1) All minimum inhibitory concentrations (MICs) were determined according to the Clinical and Standards Laboratory Institute (CLSI) guidelines. In brief, agar plates were inoculated from glycerol stocks and incubated overnight at 35 °C. Peptide DMSO stocks were dispensed into 96-well round-bottom plates using a TECAN D300e dispenser. Colistin sulfate (Sigma-Aldrich) was dissolved in water and serially diluted in a cation-adjusted Mueller Hinton broth (10 μL per well). Final concentrations of the test compounds were 0.06 to 64 μg/mL. Inocula were prepared by direct colony suspension in NaCl at 0.5 MacFarland, which was further diluted 200-fold in cation-adjusted Mueller Hinton broth for a target inoculum of 2 × 10^5 colony forming units (CFUs)/mL. 100 μL portion of the prepared inoculum was added to each well of the prepared plates containing the test compounds. Plates were sealed with parafilm and incubated for 20 h at 35 °C. Images of all plates were recorded, and MIC was assessed visually.

S. aureus ATCC 29213 [1] = type: cell-based, Staphylococcus aureus; settings: ATCC 29213, 20 h
Description: as §1

S. aureus UAMS-1625 = type: cell-based, Staphylococcus aureus; settings: S. aureus UAMS-1625 (BV18); CLSI broth dilution, cation-adjusted Mueller Hinton broth, 20 h, 35 °C, read visually
Description: as §1

ATCC 25922 = type: cell-based, Enterococcus faecalis; settings: ATCC 25922, 20 h
Description: as §1

E. faecalis ATCC 29212 = type: cell-based, Enterococcus faecalis; settings: ATCC 29212, 20 h
Description: as §1

E. faecium ATCC 51559 = type: cell-based, Enterococcus faecium; settings: ATCC 51559, 20 h
Description: as §1

E. faecium IHMA 890472 = type: cell-based, Enterococcus faecium; settings: IHMA 890472, 20 h
Description: as §1

A. baumannii ATCC 17978 = type: cell-based, Acinetobacter baumannii; settings: ATCC 17978, 20 h
Description: as §1

A. baumannii HUMC1 = type: cell-based, Acinetobacter baumannii; settings: HUMC1, 20 h
Description: as §1

A. baumannii IHMA 777621 = type: cell-based, Acinetobacter baumannii; settings: IHMA 777621, 20 h
Description: as §1

E. coli 1214245 = type: cell-based, Escherichia coli; settings: 1214245, 20 h
Description: as §1

E. coli 1220120 = type: cell-based, Escherichia coli; settings: 1220120, 20 h
Description: as §1

E. coli ATCC 25922 = type: cell-based, Escherichia coli; settings: ATCC 25922, 20 h
Description: as §1

K. pneumoniae 1227947 = type: cell-based, Klebsiella pneumoniae; settings: 1227947, 20 h
Description: as §1

K. pneumoniae 1228586 = type: cell-based, Klebsiella pneumoniae; settings: 1228586, 20 h
Description: as §1

K. pneumoniae ATCC 13883 = type: cell-based, Klebsiella pneumoniae; settings: ATCC 13883, 20 h
Description: as §1

P. aeruginosa 1218019 = type: cell-based, Pseudomonas aeruginosa; settings: 1218019, 20 h
Description: as §1

P. aeruginosa 1226072 = type: cell-based, Pseudomonas aeruginosa; settings: 1226072, 20 h
Description: as §1

P. aeruginosa PAO1 = type: cell-based, Pseudomonas aeruginosa; settings: PAO1, 20 h
Description: as §1

S. aureus ATCC 29213 [2] = experiment: LIVE/DEAD staining (SYTO 9 / propidium iodide); type: cell-based, Staphylococcus aureus; settings: S. aureus ATCC 29213, 1 × MIC, 15 min, microscopy
Description: This assay was performed according to a previously described procedure.[55],[56] Briefly, overnight cultures of E. coli ATCC 25922 and S. aureus ATCC 29213 were diluted to an OD600 of 0.2 in MHB and mixed with 1 × MIC of Oct-TriA1, Oct-TriA5, and Oct-TriD. Nisin and polymyxin B were used as positive controls at a concentration of 2-fold MIC. At the same time, green fluorescent nucleic acid stain SYTO 9 (excitation, 450–490 nm; emission, 500–550 nm) and red fluorescent nucleic acid stain propidium iodide (excitation, 574–599 nm; emission, 612–682 nm) (LIVE/DEAD Baclight Bacterial Viability Kit, Invitrogen) were added to the above cell suspensions. After mixing and incubating for 15 min in the dark at RT, cells were briefly sedimented via centrifugation and resuspended in fresh MHB. Then, the cell suspensions were loaded on 1.5% agarose pads and analyzed by a Zeiss Imager M2 microscope. Confocal images were obtained at 4 random locations for each sample and visualized using FIJI version 1.51H.[57]

Rabbit red blood cells = experiment: Hemolysis assay; type: cell-based; settings: rabbit red blood cells in PBS, 37 °C, 1 h, absorbance at 405 nm, normalization to the Triton X-100 control; 0.25 to 128 μg/mL tested
Description: Peptides, dissolved in DMSO, were dispensed into 96-well round-bottom microplates using a TECAN D300e dispenser and subsequently diluted with 100 μL of PBS. PBS or 2% Triton X-100 was used as negative and positive controls, respectively. Rabbit red blood cells (BioConcept) were diluted in PBS to a final concentration of 2%, and 100 μL was added to each well of the prepared 96-well plates. The final concentration of the test compounds was 0.25 to 128 μg/mL. Plates were incubated at 37 °C for 1 h and afterward subjected to centrifugation at 1000g for 5 min. Then, 30 μL of supernatant was transferred to a new round-bottom plate, and absorbance was measured at 405 nm (TECAN Infinite F200). EC50s were calculated after blank subtraction and normalization to the Triton control.

HepG2 cells = experiment: Cytotoxicity determination (CellTiter-Glo); type: cell-based; settings: HepG2, medium without serum, 24 h, normalization to the untreated control, 1 to 128 μg/mL tested
Description: HepG2 cells were grown in EMEM (Sigma) supplemented with 2 mM glutamine and 10% fetal bovine serum (Fisher) at 37 °C, 5% CO2. 20′000 cells per well were seeded into clear tissue culture-treated 96-well plates and incubated for 24 h. Peptides, dissolved in DMSO, were dispensed into 96 deep well plates (TECAN D300e dispenser) and diluted to a final concentration of 1 to 128 μg/mL using fresh medium without serum. The next day, the old media were removed from the cells, and 200 μL of the prepared compound dilutions was added per well. Plates were incubated for another 24 h before assessing the cell viability using the CellTiter-Glo kit (Promega) according to the manufacturer’s protocol. IC50s were calculated after normalization to the untreated control.

[3] = test system: Gram-positive bacteria (Staphylococcus aureus, Enterococcus faecalis, Enterococcus faecium); experiment: MIC, summary over Gram-positive strains; type: cell-based; settings: at a concentration of 64 μg/mL; summary of Table 2
Description: as §1

[4] = test system: Gram-negative ESKAPE pathogens; type: cell-based; settings: 20 h
Description: as §1

| Compound | MIC (S. aureus 1126387) [µg/mL] | MIC (S. aureus ATCC 29213 [1]) [µg/mL] | MIC (S. aureus UAMS-1625) [µg/mL] | MIC (ATCC 25922) [µg/mL] | MIC (E. faecalis ATCC 29212) [µg/mL] | MIC (E. faecium ATCC 51559) [µg/mL] | MIC (E. faecium IHMA 890472) [µg/mL] | MIC (A. baumannii ATCC 17978) [µg/mL] | MIC (A. baumannii HUMC1) [µg/mL] | MIC (A. baumannii IHMA 777621) [µg/mL] | MIC (E. coli 1214245) [µg/mL] | MIC (E. coli 1220120) [µg/mL] | MIC (E. coli ATCC 25922) [µg/mL] | MIC (K. pneumoniae 1227947) [µg/mL] | MIC (K. pneumoniae 1228586) [µg/mL] | MIC (K. pneumoniae ATCC 13883) [µg/mL] | MIC (P. aeruginosa 1218019) [µg/mL] | MIC (P. aeruginosa 1226072) [µg/mL] | MIC (P. aeruginosa PAO1) [µg/mL] | further results |
| --- | --- | --- | --- | --- | --- | --- | --- | --- | --- | --- | --- | --- | --- | --- | --- | --- | --- | --- | --- | --- |
| CCCCCCCC(=O)N[C@@H](C(=O)N[C@H](CCN)C(=O)NCC(=O)N[C@H](CO)C(=O)N[C@H](Cc1c[nH]c2ccccc12)C(=O)N[C@@H](CO)C(=O)N[C@@H](CCN)C(=O)N[C@H](CCN)C(=O)N[C@@H](Cc1ccccc1)C(=O)N[C@@H](CCC(=O)O)C(=O)N[C@H](C(=O)N[C@@H](C(=O)N[C@@H](C)C(=O)O)[C@@H](C)CC)C(C)C)C(C)C [Oct-TriA1] (Octanoyl-[dV][dDab]G[dS][dW]S[Dab][dDab]FEV[d(aIle)]A-OH) | 32 (≈ 21 µM) | 32 (≈ 21 µM) | 32 (≈ 21 µM) | 32 (≈ 21 µM) | 32 (≈ 21 µM) | 32 (≈ 21 µM) | 16 (≈ 10.5 µM) | 8 (≈ 5.26 µM) | 16 (≈ 10.5 µM) | 8 (≈ 5.26 µM) | 2 (≈ 1.32 µM) | 2 (≈ 1.32 µM) | 2 (≈ 1.32 µM) | 4 (≈ 2.63 µM) | 4 (≈ 2.63 µM) | 4 (≈ 2.63 µM) | 4 (≈ 2.63 µM) | 8 (≈ 5.26 µM) | 64 (≈ 42.1 µM) | LIVE/DEAD staining, membrane integrity of S. aureus cells (S. aureus ATCC 29213 [2]): still alive |
| CCCCCCCC(=O)N[C@@H](C(=O)N[C@H](CCN)C(=O)NCC(=O)N[C@H](CO)C(=O)N[C@H](Cc1c[nH]c2ccccc12)C(=O)N[C@@H](CO)C(=O)N[C@@H](CCN)C(=O)N[C@H](CCN)C(=O)N[C@@H](C)C(=O)N[C@@H](CCC(=O)O)C(=O)N[C@H](C(=O)N[C@@H](C(=O)N[C@@H](C)C(=O)O)[C@@H](C)CC)C(C)C)C(C)C [Oct-Ala9] (Octanoyl-[dV][dDab]G[dS][dW]S[Dab][dDab]AEV[d(aIle)]A-OH) | >64 | >64 | >64 | >64 | >64 | >64 | >64 | >64 | >64 | >64 | 16 (≈ 11.1 µM) | 8 (≈ 5.54 µM) | 16 (≈ 11.1 µM) | 16 (≈ 11.1 µM) | 8 (≈ 5.54 µM) | 8 (≈ 5.54 µM) | >64 | 32 (≈ 22.1 µM) | 64 (≈ 44.3 µM) | Hemolysis EC50 (Rabbit red blood cells): >128 µg/mL; IC50 on HepG2 w/o FCS (HepG2 cells): >128 µg/mL; antibacterial activity against Gram-positive bacteria [3]: no antibacterial activity; MICs, range over Gram-negative pathogens [4]: 8 to 64 µg/mL |

— publication PMC11106739, “Discovery and Derivatization of Tridecaptin Antibiotics with Altered Host Specificity and Enhanced Bioactivity” (ACS Chemical Biology, 2024)
